Reference: patent US9145399B2, “Substituted bicyclic triazole derivatives as gamma secretase modulators” (Janssen Pharmaceuticals, Inc., priority 2010, dated 2015)

Assays:
[1] = test system: Aβtotal; assay: Screening for γ-secretase-modulating activity in SKNBE2 cells carrying APP 695 wild type: Aβtotal in cell supernatant (Alphalisa); assay type: cell-based; conditions: overnight incubation
Method in brief: (§1)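 SKNBE2 cells expressing wild-type APP695 were incubated overnight at 37° C with test compound at several concentrations. Aβ42 and Aβtotal in supernatant were measured by AlphaLISA sandwich immunoassays. IC50 came from 4-parameter non-linear fits of percent of compound-free control versus log concentration.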

[2] = test system: Aβtotal; assay: In vivo efficacy: Aβtotal in brain of non-transgenic mice after single oral dose (ELISA); set-up: species or system mouse; conditions: dose 30 mg/kg oral dosing, soluble brain fraction, animals sacrificed after 4 h, untreated animals (Ctrl) set at 100; for response vs control in vivo at 30 mg/kg: Mus musculus, read-out: Aβtotal (% vs Ctrl)_Mean
From the text: (§2) To determine whether acute administration of an Aβ42 lowering agent would reduce Aβ42 levels in vivo, non-transgenic rodents, e.g. mice or rats were used. Animals treated with the Aβ42 lowering agent were examined and compared to those untreated or treated with vehicle and brain levels of soluble Aβ42 and total Aβ were quantitated by standard techniques, for example, using ELISA. Treatment periods varied from hours (h) to days and were adjusted based on the results of the Aβ42 lowering once a time course of onset of effect could be established.
(§3) A typical protocol for measuring Aβ42 lowering in vivo is shown but it is only one of many variations that could be used to optimize the levels of detectable Aβ. For example, Aβ42 lowering compounds were formulated in 20% of Captisol® (a sulfobutyl ether of β-cyclodextrin) in water or 20% hydroxypropyl β cyclodextrin. The Aβ42 lowering agents were administered as a single oral dose or by any acceptable route of administration to overnight fasted animals. After 4 h, the animals were sacrificed and Aβ42 levels were analysed.
(§4) Blood was collected by decapitation and exsanguinations in EDTA-treated collection tubes. Blood was centrifuged at 1900 g for 10 minutes (min) at 4° C. and the plasma recovered and flash frozen for later analysis. The brain was removed from the cranium and hindbrain. The cerebellum was removed and the left and right hemisphere were separated. The left hemisphere was stored at −18° C. for quantitative analysis of test compound levels. The right hemisphere was rinsed with phosphate-buffered saline (PBS) buffer and immediately frozen on dry ice and stored at −80° C. until homogenization for biochemical assays.
(§5) Mouse brains from non-transgenic animals were resuspended in 8 volumes of 0.4% DEA (diethylamine)/50 mM NaCl containing protease inhibitors (Roche-11873580001 or 04693159001) per gram of tissue, e.g. for 0.158 g brain, add 1.264 ml of 0.4% DEA. All samples were homogenized in the FastPrep-24 system (MP Biomedicals) using lysing matrix D (MPBio #6913-100) at 6 m/s for 20 seconds. Homogenates were centrifuged at 221.300×g for 50 min. The resulting high speed supernatants were then transferred to fresh eppendorf tubes. Nine parts of supernatant were neutralized with 1 part 0.5 M Tris-HCl pH 6.8 and used to quantify Aβtotal and Aβ42.
(§6) To quantify the amount of Aβtotal and Aβ42 in the soluble fraction of the brain homogenates, Enzyme-Linked-Immunosorbent-Assays were used. Briefly, the standards (a dilution of synthetic Aβ1-40 and Aβ1-42, Bachem) were prepared in 1.5 ml Eppendorf tube in Ultraculture, with final concentrations ranging from 10000 to 0.3 pg/ml. The samples and standards were co-incubated with HRPO-labelled N-terminal antibody for Aβ42 detection and with the biotinylated mid-domain antibody 4G8 for Aβtotal detection. 50 μl of conjugate/sample or conjugate/standards mixtures were then added to the antibody-coated plate (the capture antibodies selectively recognize the C-terminal end of Aβ42, antibody JRF/cAβ42/26, for Aβ42 detection and the N-terminus of Aβ, antibody JRF/rAβ/2, for Aβtotal detection). The plate was allowed to incubate overnight at 4° C. in order to allow formation of the antibody-amyloid complex. Following this incubation and subsequent wash steps the ELISA for Aβ42 quantification was finished by addition of Quanta Blu fluorogenic peroxidase substrate according to the manufacturer's instructions (Pierce Corp., Rockford, Il). A reading was performed after 10 to 15 min (excitation 320 nm/emission 420 nm).
For Aβtotal detection, a Streptavidine-Peroxidase-Conjugate was added, followed 60 min later by an additional wash step and addition of Quanta Blu fluorogenic peroxidase substrate according to the manufacturer's instructions (Pierce Corp., Rockford, Ill). A reading was performed after 10 to 15 min (excitation 320 nm/emission 420 nm). […]

[3] = test system: Aβ42; assay: In vivo efficacy: Aβ42 lowering in brain of non-transgenic mice after single oral dose (ELISA); set-up: species or system mouse; conditions: dose 30 mg/kg oral dosing, soluble brain fraction, animals sacrificed after 4 h, untreated animals (Ctrl) set at 100; for response vs control in vivo at 30 mg/kg: Mus musculus, read-out: Aβ42 (% vs Ctrl) _Mean
From the text: as §2, §3, §4, §5, §6
In this model at least 20% Aβ42 lowering compared to untreated animals would be advantageous.
The results are shown in Table 4 (dose 30 mg/kg oral dosing) (value for untreated animals as control (Ctrl) was set at 100): […]

[4] = test system: Aβ42; assay: Screening for γ-secretase-modulating activity in SKNBE2 cells carrying APP 695 wild type: Aβ42 in cell supernatant (Alphalisa); assay type: cell-based; conditions: overnight incubation
Method in brief: as §1

[5] = Homo sapiens, SKNBE2, SKNBE2 cells carrying APP 695 wild type

| Structure (SMILES) | IC50 ([1]; Homo sapiens) [µM] | IC50 [4, 5] [µM] | IC50 [1] [µM] | IC50 ([4]; SKNBE2 cells carrying APP 695 wild type) [µM] | melting point [°C] | response vs control in vivo at 30 mg/kg [2] [%] | response vs control in vivo at 30 mg/kg [3] [%] | Aβtotal (% vs Ctrl)_Mean [2] [% vs Ctrl] | Aβ42 (% vs Ctrl) _Mean [3] [% vs Ctrl] |
| --- | --- | --- | --- | --- | --- | --- | --- | --- | --- |
| COc1cc(Nc2nc3n(n2)CCCC3c2ccccc2Cl)ccc1-c1ccnc(C)c1 (racemic) [Compound 66, 8-(2-chlorophenyl)-5,6,7,8-tetrahydro-N-[3-methoxy-4-(2-methyl-4-pyridinyl)phenyl]-[1,2,4]triazolo[1,5-a]pyridin-2-amine] | 9.12 | 0.035 | – | – | – | 92 | 54 | – | – |
| COc1cc(Nc2nc3n(n2)CCN(C)C3c2ccccc2C(F)(F)F)ccc1-n1cnc(C)c1 (stereo not drawn) [Compound 13, 5,6,7,8-tetrahydro-N-[3-methoxy-4-(4-methyl-1H-imidazol-1-yl)phenyl]-7-methyl-8-[2-(trifluoromethyl)phenyl]-[1,2,4]triazolo[1,5-a]pyrazin-2-amine] | 7.76 | 0.009 | – | – | – | 100 | 93 | – | – |
| COc1cc(Nc2nc3n(n2)CCN(C(C)=O)C3c2ccccc2C(F)(F)F)ccc1-n1cnc(C)c1 (stereo not drawn) [Compound 14, 7-acetyl-5,6,7,8-tetrahydro-N-[3-methoxy-4-(4-methyl-1H-imidazol-1-yl)phenyl]-8-[2-(trifluoromethyl)phenyl]-[1,2,4]triazolo[1,5-a]pyrazin-2-amine] | > 10 | 0.066 | – | – | – | 119 | 101 | – | – |
| Cc1cc(-c2ccc(Nc3nc4n(n3)CCCC4c3ccccc3C(F)(F)F)cc2)ccn1 (stereo not drawn) [Compound 42, 5,6,7,8-tetrahydro-N-[4-(2-methyl-4-pyridinyl)phenyl]-8-[2-(trifluoromethyl)phenyl]-[1,2,4]triazolo[1,5-a]pyridin-2-amine] | > 10 | 0.023 | – | – | – | 83 | 58 | – | – |
| COc1cc(Nc2nc3n(n2)CCCC3c2ccccc2C(F)(F)F)ccc1-c1ccnc(C)c1 (stereo not drawn) [Compound 43, 5,6,7,8-tetrahydro-N-[3-methoxy-4-(2-methyl-4-pyridinyl)phenyl]-8-[2-(trifluoromethyl)phenyl]-[1,2,4]triazolo[1,5-a]pyridin-2-amine] | 7.08 | 0.016 | – | – | – | 87 | 71 | – | – |
| FC(F)(F)c1ccccc1C1CCCn2nc(Nc3ccc(-c4cccnc4)cc3)nc21 (stereo not drawn) [Compound 46, 5,6,7,8-tetrahydro-N-[4-(3-pyridinyl)phenyl]-8-[2-(trifluoromethyl)phenyl]-[1,2,4]triazolo[1,5-a]pyridin-2-amine] | > 10 | 5.25 | – | – | – | 98 | 61 | – | – |
| COc1cc(Nc2nc3n(n2)C(c2ccccc2C(F)(F)F)CCC3)ccc1-c1ccnc(C)c1 (stereo not drawn) [Compound 52, 5,6,7,8-tetrahydro-N-[3-methoxy-4-(2-methyl-4-pyridinyl)phenyl]-5-[2-(trifluoromethyl)phenyl]-[1,2,4]triazolo[1,5-a]pyridin-2-amine 1.8 HCl3H2O] | ≥ 10 | 0.182 | – | – | – | 112 | 45 | – | – |
| COc1cc(Nc2nc3n(n2)CCOC3c2ccccc2C(F)(F)F)ccc1-c1ccnc(C)c1 (stereo not drawn) [Compound 65, 5,6-dihydro-N-[3-methoxy-4-(2-methyl-4-pyridinyl)phenyl]-8-[2-(trifluoromethyl)phenyl]-8H-[1,2,4]triazolo[5,1-c][1,4]oxazin-2-amine] | > 10 | 0.052 | – | – | – | 101 | 64 | – | – |
| COc1ccc(C2CCCn3nc(Nc4ccc(-c5ccnc(C)c5)cc4)nc32)cc1F.Cl.O (stereo not drawn) [Compound 105, 8-(3-fluoro-4-methoxyphenyl)-5,6,7,8-tetrahydro-N-[4-(2-methyl-4-pyridinyl)phenyl]-[1,2,4]triazolo[1,5-a]pyridin-2-amine.1.6HCl.2.4H2O] | – | – | > 10 | 0.056 | – | – | – | 99 | 51 |

Continued, in another order:

| IC50 ([1]; Homo sapiens) [µM] | IC50 [4, 5] [µM] | IC50 [1] [µM] | IC50 ([4]; SKNBE2 cells carrying APP 695 wild type) [µM] | melting point [°C] | Structure (SMILES) | response vs control in vivo at 30 mg/kg [2] [%] | response vs control in vivo at 30 mg/kg [3] [%] | Aβtotal (% vs Ctrl)_Mean [2] [% vs Ctrl] | Aβ42 (% vs Ctrl) _Mean [3] [% vs Ctrl] |
| --- | --- | --- | --- | --- | --- | --- | --- | --- | --- |
| > 10 | 0.05 | – | – | 174 | COc1cc(Nc2nc3n(n2)CCCC3c2c(F)cccc2Cl)ccc1-c1ccnc(C)c1 (stereo not drawn) [Compound 110, 8-(2-chloro-6-fluorophenyl)-5,6,7,8-tetrahydro-N-[3-methoxy-4-(2-methyl-4-pyridinyl)phenyl]-[1,2,4]triazolo[1,5-a]pyridin-2-amine] | – | – | – | – |
| > 10 | 0.041 | – | – | 194.4 | Cc1cc(-c2ccc(Nc3nc4n(n3)CCCC4c3cc(C(F)(F)F)ccc3F)cc2)ccn1 (stereo not drawn) [Compound 114, 8-[2-fluoro-5-(trifluoromethyl)phenyl]-5,6,7,8-tetrahydro-N-[4-(2-methyl-4-pyridinyl)phenyl]-[1,2,4]triazolo[1,5-a]pyridin-2-amine] | – | – | – | – |
| > 10 | 0.071 | – | – | 234.4 | Cc1cc(-c2ccc(Nc3nc4n(n3)CCCC4c3c(F)cccc3Cl)cc2)ccn1 (stereo not drawn) [Compound 116, 8-(2-chloro-6-fluorophenyl)-5,6,7,8-tetrahydro-N-[4-(2-methyl-4-pyridinyl)phenyl]-[1,2,4]triazolo[1,5-a]pyridin-2-amine] | – | – | – | – |
| 7.08 | 0.031 | – | – | 146.8 | COc1cc(Nc2nc3n(n2)CCCC3c2cc(C(F)(F)F)ccc2C)ccc1-c1ccnc(C)c1 (stereo not drawn) [Compound 151, 5,6,7,8-tetrahydro-N-[3-methoxy-4-(2-methyl-4-pyridinyl)phenyl]-8-[2-methyl-5-(trifluoromethyl)phenyl]-[1,2,4]triazolo[1,5-a]pyridin-2-amine] | – | – | – | – |
| > 10 | 0.044 | – | – | 173.1 | COc1cc(Nc2nc3n(n2)CCCC3c2cc(C(F)(F)F)ccc2F)ccc1-c1ccnc(C)c1 (stereo not drawn) [Compound 182, 8-[2-fluoro-5-(trifluoromethyl)phenyl]-5,6,7,8-tetrahydro-N-[3-methoxy-4-(2-methyl-4-pyridinyl)phenyl]-[1,2,4]triazolo[1,5-a]pyridin-2-amine] | – | – | – | – |
| > 10 | 0.041 | – | – | 204.6 | COc1ccc(F)c(C2CCCn3nc(Nc4ccc(-c5ccnc(C)c5)cc4)nc32)c1 (stereo not drawn) [Compound 183, 8-(2-fluoro-5-methoxyphenyl)-5,6,7,8-tetrahydro-N-[4-(2-methyl-4-pyridinyl)phenyl]-[1,2,4]triazolo[1,5-a]pyridin-2-amine] | – | – | – | – |
| > 10 | 0.023 | – | – | 221.5 | COc1ccc(F)c(C2CCCn3nc(Nc4ccc(-c5ccnc(C)c5)c(F)c4)nc32)c1 (stereo not drawn) [Compound 184, 8-(2-fluoro-5-methoxyphenyl)-N-[3-fluoro-4-(2-methyl-4-pyridinyl)phenyl]-5,6,7,8-tetrahydro-[1,2,4]triazolo[1,5-a]pyridin-2-amine] | – | – | – | – |
